Test results from article PMC8395767, “Worsening of the Toxic Effects of (±)Cis-4,4′-DMAR Following Its Co-Administration with (±)Trans-4,4′-DMAR: Neuro-Behavioural, Physiological, Immunohistochemical and Metabolic Studies in Mice” (International Journal of Molecular Sciences, 2021).
Values joined by “and” are separate entries in the source; they are usually repeats but may differ in a detail not shown here. Equal entries are not always repeated. Marks after values point to notes of the source that are not given here.

Assays:
mice [1] = test: Sweating and salivation (observation, present or not); type: in vivo; conditions: n=6 mice
Procedure: (§1) The effects of (±)cis-4,4′-DMAR, (±)trans-4,4′-DMAR and their co-administration were investigated by a protocol widely used in studies of “safety pharmacology” for the preclinical characterization of new molecules in rodents. This protocol includes a series of observational behavioural tests carried out in a consecutive manner that monitor the animal responses up to 5 h after compound injections. In the present study, we reported the observation of physiological (sweating, salivation, core temperature) and neuro-behavioural (detection of psychomotor agitation, spontaneous and stimulated aggressiveness, convulsions) changes occurring in mice after injection of (±)cis-4,4′-DMAR, (±)trans-4,4′-DMAR and their co-administration. Before pharmacological treatment the mouse was placed on a square plate (30 cm× 30 cm) raised from the ground (20 cm) and left free to move on the plate for 10 min (habituation period). The animal was then injected with the vehicle, substances alone ((±)cis-4,4′-DMAR or (±)trans-4,4′-DMAR) or in cis + trans co-administration and placed on the plate. From this moment, the recording time of the physiological and neuro-behavioural responses started, and these were detected in 5-min sessions.
(§2) After the first 5 min, the animal was removed from the plate; the body core temperature was then measured, and the aggression tests were performed. The 5-min observation period was repeated at 15–30–60–90–120–180–240–300. Psychomotor agitation in the mouse was not simply related to an increase in spontaneous locomotion itself, but by an “unusual hyperactivity” which was characterised by rapid and sudden horizontal displacements in all directions, sustained turning behaviour, involuntary falls from the high plate during the evaluation of the tests, stereotyped movements and rearing activity. Mouse sweating and salivation were reported only if present or not. The core temperature was determined using a probe (1 mm diameter) that was gently inserted after lubrication with liquid Vaseline into the rectum of the mouse (to about 2 cm) and left in position until the temperature stabilised (about 10 s). The probe was connected to a digital thermometer. Spontaneous aggressive response was measured based on the number of times a mouse bit a grey cloth put in front of its snout. During the test, each mouse was free to move within the cage. In the case of stimulated aggressiveness, each mouse was manually restrained and held in a supine position following which an object was brought near the mouth. For both spontaneous and stimulated aggressive behaviour tests, a grey cloth was placed in front of the nose of each mouse 10 consecutive times (score 0/10 not aggressive, score 10/10 very aggressive). Convulsions were defined as a loss of righting reflexes for at least 5 s, combined with the presence of body tremors and clonic or tonic limb movements. Deaths caused by 4-4’-DMAR injection occurring during the observation period (5 h) were also reported as frequency (%) and time of death (min). Experiments were conducted inside the LARP (Centralised Preclinical Research Laboratory, University of Ferrara, Ferrara, Italy) in a thermo-stated (temperature 20–22 °C, humidity about 45–55%) and light controlled (about 150 lux) room, in which there was a background noise of about 40 ± 4 dB. The experiments, conducted in blind by trained observers working together in pairs, were videotaped and eventually analysed off-line by a different trained operator. The experiments were performed between 8:30 a.m. and 2:00 p.m.
(§3) Sweating and salivation were expressed as frequency (e.g., % of animals that developed symptoms); psychomotor agitation was expressed as frequency (% of animals) and duration (total time in mins). Core temperature values were expressed as the difference between control temperature (before injection) and temperature following drug administration (Δ°C). […]

mice [2] = test: Spontaneous and stimulated aggressiveness (bites of a grey cloth); type: in vivo
Procedure: as §1, §2, §3

mice [3] = test: Convulsions (observation); type: in vivo; conditions: n=6 mice
Procedure: as §1, §2, §3

mice [4] = test: Lethality during the observation period; type: in vivo; conditions: n=6 mice
Procedure: as §1, §2, §3

frontal cortex = test: Histology of brain (haematoxylin/eosin); type: in vivo, mice; conditions: 30 mg/kg, compared to controls
Text: Following the acute death or the sacrifice of the animals (after 5-h observation period by dislocation of the spine), brains were taken. These were fixed in 4% buffered formalin and then sampled and incorporated into the paraffin (Leica ASP300 processor, Histoline TEC2900 incorporator; Leica Microsystems Srl, Buccinasco, Milano, Italy). Subsequently, the cut (performed with the Leica HistoCore autocut microtome; Leica Microsystems Srl, Buccinasco, Milano, Italy) was designed to create sections with a thickness of 5 µm for each sample.
For histological investigations, the sections were stained with haematoxylin/eosin and then observed under optical microscope (Nikon Eclipse E90i; Nikon, Roma, Italy).

[5] = recent pharmacokinetic study; cited from earlier work
mice [6] = test: Physiological and neuro-behavioural responses, all parameters (safety pharmacology protocol); type: in vivo
Procedure: The effects of (±)cis-4,4′-DMAR, (±)trans-4,4′-DMAR and their co-administration were investigated by a protocol widely used in studies of “safety pharmacology” for the preclinical characterization of new molecules in rodents. This protocol includes a series of observational behavioural tests carried out in a consecutive manner that monitor the animal responses up to 5 h after compound injections. […] From this moment, the recording time of the physiological and neuro-behavioural responses started, and these were detected in 5-min sessions.
After the first 5 min, the animal was removed from the plate; the body core temperature was then measured, and the aggression tests were performed. […] The core temperature was determined using a probe (1 mm diameter) that was gently inserted after lubrication with liquid Vaseline into the rectum of the mouse (to about 2 cm) and left in position until the temperature stabilised (about 10 s). […] Spontaneous aggressive response was measured based on the number of times a mouse bit a grey cloth put in front of its snout. […] The experiments, conducted in blind by trained observers working together in pairs, were videotaped and eventually analysed off-line by a different trained operator. […]

DAT = system: DAT; design: method as in PMID 25331619; conditions: rat brain tissue, lower potency than (±)cis-4,4′-DMAR; cited from earlier work
NET = system: NET; design: method as in PMID 25331619; conditions: rat brain tissue, lower potency than (±)cis-4,4′-DMAR; cited from earlier work
SERT = system: SERT; design: method as in PMID 25331619; conditions: rat brain tissue, lower potency than (±)cis-4,4′-DMAR; cited from earlier work
[7] = 30 mg/kg i.p., listed as (±)cis-4,4′-DMAR
[8] = 60 mg/kg i.p., listed as (±)cis-4,4′-DMAR
[9] = 10 mg/kg i.p., n=4 mice (animals of the urine excretion study)

With `Cc1ccc(C2OC(N)=NC2C)cc1` (stereo not drawn) [cis-4,4’-DMAR, 4-methyl-5-(4-methylphenyl)-4,5-dihydrooxazol-2-amine] the “Salivation Frequency % (n° of mice)” value (mice [1]; 30 mg/kg i.p.) was 100% (6), the “Sweating Frequency % (n° of mice)” value (mice [1]; 30 mg/kg i.p.) was 100% (6) and the “Salivation Frequency % (n° of mice)” value (mice [1]; [7]) was “All animals”. The “Sweating Frequency % (n° of mice)” value (mice [1]; [7]) was “All animals”, the “Salivation Frequency % (n° of mice)” value (mice [1]; 60 mg/kg i.p.) was 50% (3) and the “Sweating Frequency % (n° of mice)” value (mice [1]; 60 mg/kg i.p.) was 100% (6). The “Sweating Frequency % (n° of mice)” value (mice [1]; [8]) was 50%, the “Aggressiveness Stimulated Frequency % (n° of mice)” value (mice [2]; [9]) was 100% (4) and the “Aggressiveness Stimulated Score (n° of bites)” value (“Aggressiveness Stimulated Score” below) (mice [2]; [9]) was 5 ± 0.23 n° of bites. For the same molecule, the “Aggressiveness Stimulated Frequency % (n° of mice)” value (mice [2]; 10 mg/kg i.p., n=6 mice) was 100% (6), the “Aggressiveness Stimulated Score” value (mice [2]; 10 mg/kg i.p., n=6 mice) was 6 ± 0.23 n° of bites and the “Aggressiveness Stimulated Frequency % (n° of mice)” value (mice [2]; 30 mg/kg i.p., n=6 mice) was 100% (6). For the same molecule, the “Aggressiveness Stimulated Score” value (mice [2]; 30 mg/kg i.p., n=6 mice) was 10 ± 0.23 ^b n° of bites, the Spontaneous aggressiveness (mice [2]; mice, i.p., 60 mg/kg could not be tested) was “not associated with increased levels” and the “Convulsion Duration of each episode” value (mice [3]; 30 mg/kg i.p.) was 4.86 ± 1.26 s. The “Convulsion Episodes (n°)” value (mice [3]; 30 mg/kg i.p.) was 3.5 ± 0.5 n°, the “Convulsion Frequency % (n° of mice)” value (mice [3]; 30 mg/kg i.p.) was 50% (3) and the “Convulsion Latency of first episode” value (mice [3]; 30 mg/kg i.p.) was 10.5 ± 1.5 s. For the same molecule, the “Convulsion Frequency % (n° of mice)” value (mice [3]; [7]) was 50%, the “Convulsion Duration of each episode” value (mice [3]; 60 mg/kg i.p.) was 16.14 ± 6.2 s and the “Convulsion Duration of each episode (sec)” value (mice [3]; 60 mg/kg i.p.) was 16.14 ± 3.2 ^d sec. For the same molecule, the “Convulsion Episodes (n°)” value (mice [3]; 60 mg/kg i.p.) was 2.0 ± 0.41 ^d n° and 2.0 ± 0.41 n°, the “Convulsion Frequency % (n° of mice)” value (mice [3]; 60 mg/kg i.p.) was 100% (6) and the “Convulsion Latency of first episode” value (mice [3]; 60 mg/kg i.p.) was 8.25 ± 1.1 s. For the same molecule, the “Convulsion Frequency % (n° of mice)” value (mice [3]; [8]) was 100%, the “Lethality Frequency % (n° of mice)” value (mice [4]; 30 mg/kg i.p.) was 50% (3) and the “Lethality Surviving mice % (n° of mice)” value (mice [4]; 30 mg/kg i.p.) was 50% (3). The “Lethality Time of death” value (mice [4]; 30 mg/kg i.p.) was 59.3 ± 2.3 min, the “Lethality Frequency % (n° of mice)” value (mice [4]; 60 mg/kg i.p.) was 100% (6) and the “Lethality Surviving mice % (n° of mice)” value (mice [4]; 60 mg/kg i.p.) was 0% (0). For the same molecule, the “Lethality Time of death” value (mice [4]; 60 mg/kg i.p.) was 31.9 ± 5.6 min, the “Lethality Time of death (min)” value (mice [4]; 60 mg/kg i.p.) was 31.9 ± 5.6 ^d min and the “Histology of the frontal cortex (edema, vacuolization areas)” value (frontal cortex) was “mild edema”. The “Metabolism and excretion in the mouse urine” value [5] was “metabolised and excreted”.

For `Cc1ccc(C2OC(N)=NC2C)cc1` (stereo not drawn) [trans-4,4’-DMAR, 4-methyl-5-(4-methylphenyl)-4,5-dihydrooxazol-2-amine], the “Physiological and neuro-behavioural changes” value (mice [6]; 30 and 60 mg/kg, systemic administration) is listed as “did not induce any physiological and neuro-behavioural changes”, the “Physiological and neuro-behavioural parameters, all parameters studied” value (mice [6]; lower doses of 0.1 and 1 mg/kg) is listed as “inactive” and the “Mode of action at DAT” value (DAT) is listed as “substrate-type releaser”. The “Mode of action at NET” value (NET) was “substrate-type releaser”, the “Mode of action at SERT” value (SERT) was “uptake blocker” and the “Metabolism and excretion in the mouse urine” value [5] was “not metabolised”.
